# Patent US8158792B2, “Spiropiperidines for use as tryptase inhibitors” (Janssen Pharmaceutica N.V., priority 2007, dated 2012)
# Structures can show the parent of a compound that is named as a salt.
compound,measurement,value
"NCc1ccc2c(c1)C1(CCN(C(=O)c3ccc(C#Cc4ccccc4)o3)CC1)CO2 (as salt: salt) [Cpd 3, 1-(5-phenylethynyl-furan-2-yl)carbonyl-5′-aminomethyl-spiro[piperidine-4,3′-(2H)-benzo[b]furan]]",melting point,179 to 181 °C
